According to paper PMC5640650, “NatD promotes lung cancer progression by preventing histone H4 serine phosphorylation to activate Slug expression” (Nature Communications, 2017):

Experiments:
[1] = test system: A549 cells; assay: Orthotopic implantation in nude mice, A549 cells; type: in vivo, human; conditions: pleural cavity, 21 days, n = 6, vs Scr
Procedure: All animal care and handling procedures were performed in accordance with the National Institutes of Health Guide for the Care and Use of Laboratory Animals, and were approved by the Institutional Review Board of Nanjing University (Nanjing, China). Female SCID mice and C57BL/6 mice (6–8 week old) were purchased from the Model Animal Research Center of Nanjing University (Nanjing, China), and were maintained under specific pathogen-free conditions at Nanjing University. The sample size was chosen with adequate power on the basis of the literature and our previous experience[46] and for each experiment it is indicated in the figure legend. […] Lung nodules and progression were monitored and quantified using the bioluminescence system (Caliper IVIS Lumina XR) or by counting under a dissecting microscope. […] Mice were killed at day 28 or day 30 to collect lungs, and lung nodules in serial sections were quantified microscopically. […] Lung nodules and progression were monitored and quantified using the bioluminescence system (Caliper IVIS Lumina XR). Mice were killed at day 14 or day 21 to collect lungs, and lung nodules in serial sections were quantified microscopically. […]
Supplementary Figure 9. […] (right) Relative BLI signals of lung tumors of corresponding mice (n = 6 for each group) recorded on day 3 and day 21. […]

[2] = test system: A549 cells; assay: Expression of EMT genes, A549 cells; type: cell-based, human; conditions: vs Scr
Procedure: Cellular proteins were extracted by RIPA lysis buffer at high salt concentration (420 mM NaCl), and western blot analysis was performed in accordance with standard protocols. Scans of enhanced chemiluminescence (ECL) films showing uncropped blots are presented in Supplementary Fig. 10. […]
Total RNA from tissue samples and cultured cells was extracted using TRIzol reagent (Invitrogen). cDNAs were synthesized with a HiScript 1st Strand cDNA Synthesis Kit (Vazyme Biotech, China). Quantitative RT-PCR was performed using a FastStart Universal SYBR Green Master (Roche) according to the manufacturer’s instructions in a Rotor-Gene 6000 (Corbett Research) in a final volume of 20 μl. […]
Supplementary Figure 4. […] (a) Quantitative real-time PCR analysis of mRNA levels of NatD, CCND1, p21, p27, p57, p16, p18, p19, CHEK2, E2F1, CCND2, KRAS, PTEN, c-Myc, and PCNA in scrambled (Scr) and NatD knockdown (NatD-KD) H1299 cells normalized to GAPDH. […] (b) Quantitative real-time PCR analysis of mRNA levels of NatD and key EMT-related genes in Scr and NatD-KD A549 cells normalized to […]
GAPDH served as a loading control. […] (bottom) Cell migration and invasion expressed as a percentage of control. […]

NatD-KD2: Human NatD shRNA KD2: 5′-GGTTGAATGTCTCCATTGA-3′, lentiviral (shRNA lentiviral)
migration and invasion, orthotopic model [1]: significantly reduced | expression of E-cadherin [2]: increased the expression | expression of Slug, N-cadherin, and Vimentin [2]: decreased the expression
